Test results published in ChEMBL document CHEMBL5325391, “Spirolactone-type and enmein-type derivatives as potential anti-cancer agents derived from oridonin” (Bioorg Med Chem, 2022).

How the values were obtained:
K562 [1] = assay: Antiproliferative activity against human K562 cells assessed as reduction in cell growth after 72 hrs by MTT assay; format: functional, cell-based; conditions: K562, 72 h
SW480 = assay: Antiproliferative activity against human SW480 cells assessed as reduction in cell growth after 72 hrs by MTT assay; format: functional, cell-based; conditions: SW480, 72 h
MDA-MB-231 = assay: Antiproliferative activity against human MDA-MB-231 cells assessed as reduction in cell growth after 72 hrs by MTT assay; format: functional, cell-based; conditions: MDA-MB-231, 72 h
SMMC-7721 = assay: Antiproliferative activity against human SMMC-7721 cells assessed as reduction in cell growth after 72 hrs by MTT assay; format: functional, cell-based; conditions: SMMC-7721, 72 h
K562 [2] = assay: Potency index, ratio of oridonin IC50 to compound IC50 for antiproliferative activity against human K562 cells after 72 hrs by MTT assay; format: functional
[3] = Cytotoxicity against human L02 cells incubated for 72 hrs by MTT assay; format: toxicity, cell-based
[4] = Selectivity index, ratio of IC50 for human L02 cells to IC50 for human SMMC-7721 cells; format: toxicity; conditions: L02 cells versus SMMC-7721 cells, read-out: Ratio IC50
K562 [5] = assay: Induction of cell cycle arrest in human K562 cells assessed as accumulation of cells at G1 phase at 100 nM incubated for 48 hrs by PI staining based flow cytometry analysis (reference value: 68.84%); format: functional
K562 [6] = assay: Induction of cell cycle arrest in human K562 cells assessed as accumulation of cells at G2 phase at 100 nM incubated for 48 hrs by PI staining based flow cytometry analysis (reference value: 12.31%); format: functional
K562 [7] = assay: Induction of cell cycle arrest in human K562 cells assessed as accumulation of cells at S phase at 100 nM incubated for 48 hrs by PI staining based flow cytometry analysis (reference value: 18.85%); format: functional
K562 [8] = assay: Induction of cell cycle arrest in human K562 cells assessed as accumulation of cells at G1 phase at 200 nM incubated for 48 hrs by PI staining based flow cytometry analysis (reference value: 68.84%); format: functional
K562 [9] = assay: Induction of cell cycle arrest in human K562 cells assessed as accumulation of cells at G2 phase at 200 nM incubated for 48 hrs by PI staining based flow cytometry analysis (reference value: 12.31%); format: functional
K562 [10] = assay: Induction of cell cycle arrest in human K562 cells assessed as accumulation of cells at S phase at 200 nM incubated for 48 hrs by PI staining based flow cytometry analysis (reference value: 18.85%); format: functional
K562 [11] = assay: Induction of cell cycle arrest in human K562 cells assessed as accumulation of cells at G1 phase at 400 nM incubated for 48 hrs by PI staining based flow cytometry analysis (reference value: 68.84%); format: functional
K562 [12] = assay: Induction of cell cycle arrest in human K562 cells assessed as accumulation of cells at G2 phase at 400 nM incubated for 48 hrs by PI staining based flow cytometry analysis (reference value: 12.31%); format: functional
K562 [13] = assay: Induction of cell cycle arrest in human K562 cells assessed as accumulation of cells at S phase at 400 nM incubated for 48 hrs by PI staining based flow cytometry analysis (reference value: 18.85%); format: functional
K562 [14] = assay: Induction of cell cycle arrest in human K562 cells assessed as downregulation of cdc-2 expression incubated for 48 hrs by Western blot analysis; format: functional, cell-based; conditions: dose 100-400 nM
K562 [15] = assay: Induction of cell cycle arrest in human K562 cells assessed as downregulation of cdc-25c expression incubated for 48 hrs by Western blot analysis; format: functional, cell-based; conditions: dose 100-400 nM
K562 [16] = assay: Induction of cell cycle arrest in human K562 cells assessed as downregulation of cyclin-B1 expression incubated for 48 hrs by Western blot analysis; format: functional, cell-based; conditions: dose 100-400 nM
K562 [17] = assay: Induction of apoptosis in human K562 cells assessed as viable cells at 100 nM incubated for 48 hrs by Annexin-V and PI staining based flow cytometry analysis (reference value: 93.87%); format: functional; conditions: read-out: Activity
K562 [18] = assay: Induction of apoptosis in human K562 cells assessed as early apoptotic cells at 100 nM incubated for 48 hrs by Annexin-V and PI staining based flow cytometry analysis (reference value: 1.98%); format: functional
K562 [19] = assay: Induction of apoptosis in human K562 cells assessed as late apoptotic cells at 100 nM incubated for 48 hrs by Annexin-V and PI staining based flow cytometry analysis (reference value: 2.42%); format: functional
K562 [20] = assay: Induction of apoptosis in human K562 cells assessed as necrotic cells at 100 nM incubated for 48 hrs by Annexin-V and PI staining based flow cytometry analysis (reference value: 1.72%); format: functional
K562 [21] = assay: Induction of apoptosis in human K562 cells assessed as viable cells at 200 nM incubated for 48 hrs by Annexin-V and PI staining based flow cytometry analysis (reference value: 93.87%); format: functional; conditions: read-out: Activity
K562 [22] = assay: Induction of apoptosis in human K562 cells assessed as early apoptotic cells at 200 nM incubated for 48 hrs by Annexin-V and PI staining based flow cytometry analysis (reference value: 1.98%); format: functional
K562 [23] = assay: Induction of apoptosis in human K562 cells assessed as late apoptotic cells at 200 nM incubated for 48 hrs by Annexin-V and PI staining based flow cytometry analysis (reference value: 2.42%); format: functional
K562 [24] = assay: Induction of apoptosis in human K562 cells assessed as necrotic cells at 200 nM incubated for 48 hrs by Annexin-V and PI staining based flow cytometry analysis (reference value: 1.72%); format: functional
K562 [25] = assay: Induction of apoptosis in human K562 cells assessed as viable cells at 400 nM incubated for 48 hrs by Annexin-V and PI staining based flow cytometry analysis (reference value: 93.87%); format: functional; conditions: read-out: Activity
K562 [26] = assay: Induction of apoptosis in human K562 cells assessed as early apoptotic cells at 400 nM incubated for 48 hrs by Annexin-V and PI staining based flow cytometry analysis (reference value: 1.98%); format: functional
K562 [27] = assay: Induction of apoptosis in human K562 cells assessed as late apoptotic cells at 400 nM incubated for 48 hrs by Annexin-V and PI staining based flow cytometry analysis (reference value: 2.42%); format: functional
K562 [28] = assay: Induction of apoptosis in human K562 cells assessed as necrotic cells at 400 nM incubated for 48 hrs by Annexin-V and PI staining based flow cytometry analysis (reference value: 1.72%); format: functional
Cell membrane [29] = assay: Induction of mitochondrial membrane depolarization in human K562 cells assessed as lower right phase cells at […] incubated for 48 hrs by JC-1 staining based flow cytometry analysis; conditions: Mitochondria
Cell membrane [30] = assay: Induction of mitochondrial membrane depolarization in human K562 cells incubated for 48 hrs by JC-1 staining based flow cytometry analysis; conditions: Mitochondria, dose […]
K562 [31] = assay: Induction of ROS generation in human K562 cells incubated for 48 hrs by DCFH-DA staining based flow cytometry analysis; format: functional, cell-based; conditions: dose […]
K562 [32] = assay: Induction of ROS generation in human K562 cells at 400 nM incubated for 48 hrs by DCFH-DA staining based flow cytometry analysis (reference value: 4.82%); format: functional

Molecule C=C1C(=O)[C@@]23C(=O)OC[C@]4(C=CCC(C)(C)[C@H]4C=O)[C@@H]2CC[C@@H]1[C@H]3OC(=O)/C=C/c1cccnc1 has an IC50 (K562 [1]) of 400 nM, an IC50 (SW480) of 480 nM and an IC50 (MDA-MB-231) of 980 nM. The IC50 (SMMC-7721) was 560 nM, the “Ratio IC50” value (K562 [2]) was 10 and the IC50 at 72 h [3] was 4280 nM. For the same molecule, the selectivity ratio [4] was 7.64, the Activity (K562 [5]) was 64.33% and the Activity (K562 [6]) was 15.07%. It also gave an Activity (K562 [7]) of 20.6%, an Activity (K562 [8]) of 61.3% and an Activity (K562 [9]) of 13.9%. It also gave an Activity (K562 [10]) of 24.8%, an Activity (K562 [11]) of 55.2% and an Activity (K562 [12]) of 20.53%. For the same molecule, the Activity (K562 [13]) was 24.28%, the Activity (K562 [14]) was “Dose-Dependent Effect” and the Activity (K562 [15]) was “Dose-Dependent Effect”. The Activity (K562 [16]) was “Dose-Dependent Effect”, the viability at 0.1 µM (K562 [17]) was 86% and the Activity (K562 [18]) was 5.01%. It also gave an Activity (K562 [19]) of 5.59%, an Activity (K562 [20]) of 3.37% and a viability at 0.2 µM (K562 [21]) of 80.9%. For the same molecule, the Activity (K562 [22]) was 7.6%, the Activity (K562 [23]) was 7.23% and the Activity (K562 [24]) was 4.23%. It also gave a viability at 0.4 µM (K562 [25]) of 68.7%, an Activity (K562 [26]) of 9.41% and an Activity (K562 [27]) of 15.5%. The Activity (K562 [28]) was 6.37%, the Activity (Cell membrane [29]) was 28.4% and the Activity (Cell membrane [30]) was “Dose-Dependent Effect”. The Activity (K562 [31]) was “Dose-Dependent Effect” and the Activity (K562 [32]) was 27.83%.
